Results from ChEMBL document CHEMBL5537136 (J Med Chem, 2024).
Activity calls are given as the source filed them. No cut-off for these calls is given here.

Columns and labels:
[1] = target: T1, Protein mono-ADP-ribosyltransferase PARP10 (Homo sapiens, UniProt Q53GL7); test: Inhibition of PARP10 (unknown origin) measured after 1 hr incubation by microplate reader assay
T1 sequence (Q53GL7 whole entry): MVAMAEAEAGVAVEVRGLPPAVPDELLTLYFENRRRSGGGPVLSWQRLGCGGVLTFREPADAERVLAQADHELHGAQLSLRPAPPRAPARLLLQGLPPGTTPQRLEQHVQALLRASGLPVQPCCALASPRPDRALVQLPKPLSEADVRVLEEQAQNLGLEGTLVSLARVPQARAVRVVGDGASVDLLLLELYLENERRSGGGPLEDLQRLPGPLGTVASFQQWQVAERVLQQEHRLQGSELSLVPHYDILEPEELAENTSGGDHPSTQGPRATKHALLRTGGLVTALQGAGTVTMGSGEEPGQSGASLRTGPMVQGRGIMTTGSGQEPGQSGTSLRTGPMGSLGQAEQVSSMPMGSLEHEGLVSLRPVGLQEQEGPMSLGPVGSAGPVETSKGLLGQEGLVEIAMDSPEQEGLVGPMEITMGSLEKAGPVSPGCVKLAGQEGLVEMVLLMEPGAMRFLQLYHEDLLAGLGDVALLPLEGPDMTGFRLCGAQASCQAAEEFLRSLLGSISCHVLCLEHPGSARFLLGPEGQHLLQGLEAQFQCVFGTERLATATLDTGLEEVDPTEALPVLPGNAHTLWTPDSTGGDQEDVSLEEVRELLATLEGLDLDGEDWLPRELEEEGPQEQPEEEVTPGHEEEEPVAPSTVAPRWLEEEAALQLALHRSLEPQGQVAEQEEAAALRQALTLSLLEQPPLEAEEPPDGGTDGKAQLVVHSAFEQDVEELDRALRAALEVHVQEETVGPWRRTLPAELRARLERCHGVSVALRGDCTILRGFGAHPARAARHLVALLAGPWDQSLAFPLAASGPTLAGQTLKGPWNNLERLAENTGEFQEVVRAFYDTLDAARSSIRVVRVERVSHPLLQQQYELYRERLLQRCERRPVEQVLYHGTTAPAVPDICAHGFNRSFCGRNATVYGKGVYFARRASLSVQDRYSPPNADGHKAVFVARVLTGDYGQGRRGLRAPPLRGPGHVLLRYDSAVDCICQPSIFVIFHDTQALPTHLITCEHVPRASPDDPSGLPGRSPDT

[2] = target: T2, Protein mono-ADP-ribosyltransferase PARP12 (Homo sapiens, UniProt Q9H0J9); test: Inhibition of PARP12 (unknown origin) measured after 1 hr incubation by microplate reader assay
T2 sequence (Q9H0J9 whole entry): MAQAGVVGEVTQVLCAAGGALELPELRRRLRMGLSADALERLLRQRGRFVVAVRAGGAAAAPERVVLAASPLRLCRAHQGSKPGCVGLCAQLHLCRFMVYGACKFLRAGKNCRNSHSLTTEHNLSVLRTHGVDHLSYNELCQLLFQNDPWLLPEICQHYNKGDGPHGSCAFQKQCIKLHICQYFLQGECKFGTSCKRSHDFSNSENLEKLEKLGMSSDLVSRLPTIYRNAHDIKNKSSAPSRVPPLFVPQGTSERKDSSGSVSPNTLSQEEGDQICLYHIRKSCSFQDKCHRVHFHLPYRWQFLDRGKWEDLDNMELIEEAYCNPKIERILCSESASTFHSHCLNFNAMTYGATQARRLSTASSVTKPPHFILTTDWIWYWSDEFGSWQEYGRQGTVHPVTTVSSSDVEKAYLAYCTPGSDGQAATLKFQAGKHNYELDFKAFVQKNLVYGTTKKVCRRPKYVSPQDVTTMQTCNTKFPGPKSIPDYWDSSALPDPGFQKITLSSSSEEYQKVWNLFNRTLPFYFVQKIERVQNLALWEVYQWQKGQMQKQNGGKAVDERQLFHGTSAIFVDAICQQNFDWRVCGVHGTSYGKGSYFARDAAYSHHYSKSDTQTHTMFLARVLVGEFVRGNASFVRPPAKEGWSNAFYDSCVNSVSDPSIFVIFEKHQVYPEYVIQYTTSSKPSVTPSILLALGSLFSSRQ

[3] = Antiproliferative activity against mouse AML12 cells measured after 6 days incubation by MTT assay; type: toxicity, cell-based
[4] = Permeability across apical to basolateral side in human Caco-2 cells; type: ADME, cell-based
[5] = Permeability across basolateral to apical side in human Caco-2 cells; type: ADME, cell-based
[6] = target: Cytochrome P450 2D6 (Homo sapiens, UniProt P10635); test: Inhibition of CYP2D6 (unknown origin); type: ADME
[7] = Half life in ICR mouse at 1 mg/kg, iv measured upto 24 hrs by LC-MS/MS analysis; type: ADME, organism-based; details: in vivo
[8] = Tmax in ICR mouse at 1 mg/kg, iv measured upto 24 hrs by LC-MS/MS analysis; type: ADME, organism-based; details: in vivo
[9] = Half life in ICR mouse at 10 mg/kg, IG measured upto 24 hrs by LC-MS/MS analysis; type: ADME, organism-based; details: in vivo, po
[10] = AUC (0 to infinity) in ICR mouse at 10 mg/kg, IG measured upto 24 hrs by LC-MS/MS analysis; type: ADME, organism-based; details: in vivo, po
[11] = MRT (0 to infinity) in ICR mouse at 10 mg/kg, IG measured upto 24 hrs by LC-MS/MS analysis; type: ADME, organism-based; details: in vivo, po
[12] = Acute toxicity in ICR mouse assessed as change in body weight at 500 mg/kg, po measured after 7 days; type: organism-based; details: in vivo, 168 h, time 7 day
[13] = Toxicity in Balb/c mouse bearing mouse CT26 cells assessed as morphological changes in liver at 6.25 to 25 mg/kg, IG measured after 14 days by hematoxylin and eosin staining based assay; type: organism-based; details: in vivo, po, 336 h, dose 6.25-25 mg/kg, time 14 day
[14] = Toxicity in Balb/c mouse bearing mouse CT26 cells assessed as morphological changes in spleen at 6.25 to 25 mg/kg, IG measured after 14 days by hematoxylin and eosin staining based assay; type: organism-based; details: in vivo, po, 336 h, dose 6.25-25 mg/kg, time 14 day
[15] = Toxicity in Balb/c mouse bearing mouse CT26 cells assessed as morphological changes in kidney at 6.25 to 25 mg/kg, IG measured after 14 days by hematoxylin and eosin staining based assay; type: organism-based; details: in vivo, po, 336 h, dose 6.25-25 mg/kg, time 14 day
[16] = tested on: CT26; test: Antitumor activity in immunocompetent Balb/c mouse CT26 cell bearing mouse model assessed as change in tumor cell morphology at 6.25 to 25 mg/kg, IG treated twice a day measured after 14 days by hematoxylin and eosin staining based assay; type: functional, organism-based; details: dose lower 6.25 mg/kg, dose upper […], time 14.0 day
[17] = tested on: CT26; test: Antitumor activity in immunocompetent mouse CT26 cell bearing Balb/c mouse model assessed as induction of IFN-beta mRNA expression in tumor tissue treated IG twice a day measured after 14 days by quantitative real-time PCR analysis; type: functional; details: dose lower 6.25 mg/kg, dose upper […], time 14.0 day
[18] = tested on: CT26; test: Antitumor activity against mouse CT26 cells implanted in Balb/c mouse assessed as increase in infiltration of CD3 positive CD8 positive T lymphocytes in tumors at 25 mg/kg, IG measured after 14 days by flow cytometry; type: functional, organism-based; details: time 14.0 day
[19] = tested on: CT26; test: Antitumor activity against mouse CT26 cells implanted in Balb/c mouse assessed as increase in infiltration CD8 positive T cells in tumors at 25 mg/kg, IG measured after 14 days by flow cytometry; type: functional, organism-based; details: time 14.0 day

Cytochrome P450 2D6, sequence (P10635 whole entry): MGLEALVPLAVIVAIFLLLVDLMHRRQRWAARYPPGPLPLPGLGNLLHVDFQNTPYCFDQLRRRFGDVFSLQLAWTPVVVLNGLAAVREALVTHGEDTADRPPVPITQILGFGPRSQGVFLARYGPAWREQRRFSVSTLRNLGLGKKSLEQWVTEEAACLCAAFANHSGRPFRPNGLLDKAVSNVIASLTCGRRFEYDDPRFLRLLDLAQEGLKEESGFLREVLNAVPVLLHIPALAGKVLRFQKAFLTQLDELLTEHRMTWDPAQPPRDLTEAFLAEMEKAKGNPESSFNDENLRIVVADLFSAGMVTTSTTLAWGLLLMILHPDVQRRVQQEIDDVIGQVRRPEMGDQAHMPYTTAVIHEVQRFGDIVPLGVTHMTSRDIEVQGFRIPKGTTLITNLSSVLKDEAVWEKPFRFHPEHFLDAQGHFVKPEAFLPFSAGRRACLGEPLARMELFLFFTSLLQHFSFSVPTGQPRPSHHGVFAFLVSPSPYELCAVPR

C[C@@H](C(=O)N1CCN(c2ncc(C(F)(F)F)cn2)CC1)n1cc2cccc(C(N)=O)c2n1
IC50 [1]: 377 nM
IC50 [2]: 664 nM
IC50 at 6 days [3]: > 50 µM
Papp A→B [4]: 25.7 ×10⁻⁶ cm/s
Papp B→A [5]: 20.7 ×10⁻⁶ cm/s
IC50 [6]: > 30 µM
half-life [7]: 73.2 min
Tmax [8]: 4.8 min
half-life [9]: 106 min
AUC(0-inf) [10]: 17000 ng·h/mL
MRT inf [11]: 2.52 h
Activity [12]: Non-Toxic
Activity [13]: Non-Toxic
Activity [14]: Non-Toxic
Activity [15]: Non-Toxic
Activity [16]: Active
Activity [17]: Dose-Dependent Effect
Activity [18]: Active
Activity [19]: Active
